US12589087B2, “Enantiomer selective action on neurotransmission” (The Board of Trustees of the Leland Stanford Junior …, priority 2021, dated 2026)

Assays:
human glutaminase GLS1 = target: T1, human glutaminase GLS1 (Homo sapiens, UniProt O94925); test: Catalysis of 2MeGln hydrolysis by GLS1 glutaminase; assay type: biochemical; conditions: 10 mM substrate
T1 construct: purchased Sigma SRP0516
T1 sequence (O94925 55-669): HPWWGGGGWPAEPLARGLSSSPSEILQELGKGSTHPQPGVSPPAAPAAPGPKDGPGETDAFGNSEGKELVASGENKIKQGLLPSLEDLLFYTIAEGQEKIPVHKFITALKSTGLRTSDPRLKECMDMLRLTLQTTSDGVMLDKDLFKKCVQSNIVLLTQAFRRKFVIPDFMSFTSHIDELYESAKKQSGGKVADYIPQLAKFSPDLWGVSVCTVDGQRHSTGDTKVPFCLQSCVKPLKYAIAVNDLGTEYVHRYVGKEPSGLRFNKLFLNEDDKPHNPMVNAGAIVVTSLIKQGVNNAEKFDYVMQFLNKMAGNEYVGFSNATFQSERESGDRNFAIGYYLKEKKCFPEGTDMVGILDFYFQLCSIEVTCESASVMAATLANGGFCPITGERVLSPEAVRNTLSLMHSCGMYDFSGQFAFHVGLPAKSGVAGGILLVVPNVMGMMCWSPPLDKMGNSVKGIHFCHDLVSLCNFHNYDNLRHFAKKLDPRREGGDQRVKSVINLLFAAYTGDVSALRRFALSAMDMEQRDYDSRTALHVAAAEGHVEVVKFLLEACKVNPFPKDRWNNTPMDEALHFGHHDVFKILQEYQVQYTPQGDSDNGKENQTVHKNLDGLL
Method: The procedure was adapted from an existing protocol. To a reaction mixture in a 1.5 mL microcentrifuge tube containing 10 mM rac-2MeGln or L-Gln-^13C2 in 100 mM phosphate pH 7.4 buffer made in 20% atom ^18O water, recombinant GLS1 (final concentration: 5 ng/mL) was added. The tubes were incubated in a preheated thermomixer at 37° C. and periodically shaken at 600 rpm (30 s on, 30 s off). 5 μL aliquots were collected in triplicate every 5 min and immediately diluted with 195 μL of cold 60% ACN containing 10 μM Glu-d5 and Gln-d5 as internal standards in a 96 well plate. After collecting all samples, the plate was shaken at 1000 rpm for 5 min at room temperature, and then stored at −80° C. Before analysis the plate was thawed and 10 μL aliquots of the extracted reaction mixtures were diluted with 190 μL of 90% acetonitrile.
The quantification of the newly formed 2MeGlu in the presence of the preexisting trace amounts was performed in the following way. Peak area ratio of Glu-^13C2 to Glu-^13C2^18O was calculated in all samples containing Glu-^13C2. The mean ratio value was then applied to calculate the hypothetical peak area of the newly formed 2MeGlu based on the directly measured 2MeGlu-^18O peak area. The ratio of the newly formed 2MeGlu peak area and the total 2MeGlu peak area was applied to calculate the concentration of the newly formed 2MeGlu from the total 2MeGlu concentration determined directly using the calibration curve.

GluN2A = target: T2, GluN2A (Homo sapiens, UniProt Q12879); test: FLIPR functional assay, HEK 293 cells (agonist/PAM/antagonist); assay type: cell-based; conditions: top concentration 100 μM, read-out: IC50, functional antagonist receptor assay
T2 construct: host or cells: HEK 293 (stably expressing)
T2 sequence (Q12879 23-1464, other chains not shown): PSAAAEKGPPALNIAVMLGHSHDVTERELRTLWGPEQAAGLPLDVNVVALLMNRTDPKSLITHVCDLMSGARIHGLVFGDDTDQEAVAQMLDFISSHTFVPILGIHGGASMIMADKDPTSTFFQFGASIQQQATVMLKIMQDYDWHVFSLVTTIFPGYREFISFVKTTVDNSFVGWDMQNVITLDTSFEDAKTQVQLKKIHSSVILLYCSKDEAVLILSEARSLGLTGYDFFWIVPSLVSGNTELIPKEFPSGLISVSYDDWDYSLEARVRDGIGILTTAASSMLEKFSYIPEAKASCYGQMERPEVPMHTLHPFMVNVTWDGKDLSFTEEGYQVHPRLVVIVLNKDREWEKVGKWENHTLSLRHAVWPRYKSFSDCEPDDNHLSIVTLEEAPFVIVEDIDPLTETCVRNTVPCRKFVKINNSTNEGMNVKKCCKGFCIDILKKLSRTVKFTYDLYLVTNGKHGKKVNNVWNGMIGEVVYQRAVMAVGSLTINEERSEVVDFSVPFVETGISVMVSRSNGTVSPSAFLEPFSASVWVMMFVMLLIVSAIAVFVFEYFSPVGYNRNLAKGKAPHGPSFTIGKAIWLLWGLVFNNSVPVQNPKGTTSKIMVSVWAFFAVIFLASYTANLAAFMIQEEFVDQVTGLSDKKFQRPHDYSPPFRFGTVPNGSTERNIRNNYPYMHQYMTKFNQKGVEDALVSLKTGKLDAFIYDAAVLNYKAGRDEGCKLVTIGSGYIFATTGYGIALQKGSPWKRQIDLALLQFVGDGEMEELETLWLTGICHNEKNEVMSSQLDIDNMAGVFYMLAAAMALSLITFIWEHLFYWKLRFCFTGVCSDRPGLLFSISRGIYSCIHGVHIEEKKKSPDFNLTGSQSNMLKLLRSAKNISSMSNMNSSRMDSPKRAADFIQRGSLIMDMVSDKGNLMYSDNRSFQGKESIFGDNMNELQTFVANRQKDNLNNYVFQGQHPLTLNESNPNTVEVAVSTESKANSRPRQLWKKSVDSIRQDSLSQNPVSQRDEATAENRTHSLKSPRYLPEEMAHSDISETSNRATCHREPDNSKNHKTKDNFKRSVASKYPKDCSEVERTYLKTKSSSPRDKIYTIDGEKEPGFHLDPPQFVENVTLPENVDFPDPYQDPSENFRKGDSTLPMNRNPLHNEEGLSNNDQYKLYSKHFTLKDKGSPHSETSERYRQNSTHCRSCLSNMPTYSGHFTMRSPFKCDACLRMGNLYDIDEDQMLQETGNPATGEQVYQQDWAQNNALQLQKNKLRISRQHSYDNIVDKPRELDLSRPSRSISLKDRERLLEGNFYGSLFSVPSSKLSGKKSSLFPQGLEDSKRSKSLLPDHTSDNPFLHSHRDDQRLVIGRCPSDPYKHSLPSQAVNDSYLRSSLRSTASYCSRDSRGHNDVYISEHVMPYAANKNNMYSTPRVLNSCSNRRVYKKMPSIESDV
Method: Functional assays of all GABAA, NMDA (GluN2A-GluN2D) and AMPA (GluA2) receptor subunits were performed by SB Drug Discovery as a part of their CNS discovery panel using FLIPR technology. Briefly, receptor-expressing HEK 293 cell lines were incubated in a red membrane potential dye in HEPES:HBSS pH 7.4 buffer and the fluorescence (λex: 488, λex: 510-570) was monitored over time as the test compounds and/or reference compounds were added to the solution. In agonist assay, only test compounds were added. In positive allosteric modulator assay, cells were preincubated with test compounds and then low concentration (approximately EC20) of an appropriate agonist was added. In antagonist assay, cells were preincubated with test compounds and then high concentration (approximately EC80) of an appropriate agonist was added. For GABAA assays, GABA was used as the agonist, picrotoxin was used as the reference antagonist and allopregnanolone was used as the reference positive allosteric modulator (PAM). For NMDA assays, a mixture of glutamate, glycine and CaCl2 was used as the agonist, MK801 was the reference antagonist and pregnenolone sulfate or GNE 9278 were used as reference PAMs. For AMPA assays, glutamate was used as the agonist, CNQX was the reference antagonist and cyclothiazide was used as the reference PAM. All compounds were tested at 7 concentration points in triplicate and EC50/IC50 was determined where applicable. Functional GABAB assay was performed by Eurofins Discovery (Cerep) using Ca^2+-dependent fluorimetry in RBL cells expressing human GABAB (B1/B2) receptor. All compounds were tested at a single concentration of 100 uM in triplicate.
All receptor assays were performed exactly as described in Example 1. Functional assays of all GABAA, NMDA (GluN2A-GluN2D) and AMPA (GluA2) receptor subunits were performed by SB Drug Discovery as a part of their CNS discovery panel using FLIPR technology. All compounds were tested at 7 concentrations in triplicate and EC50/IC50 was determined where applicable. Functional GABAB assay was performed by Eurofins Discovery (Cerep) using Ca^2+-dependent fluorimetry in RBL cells expressing human GABAB (B1/B2) receptor. All compounds were tested at a single concentration of 100 uM in triplicate. Nonspecific AMPA, kainate and NMDA binding assays were performed by Eurofins Discovery (Cerep) using rat cerebral cortex membranes and radiolabeled [^3H]AMPA, [^3H]kainic acid and [^3H]CGP 39653, respectively. All compounds were tested at a single concentration of 100 uM in triplicate. mGluR1, mGluR2, mGluR5 and GABAB binding assays were performed by Eurofins Discovery. All compounds were tested at a single concentration of 100 uM in triplicate.

Line 41 mice = test: Transgenic Aβ model of AD, behavior tests; assay type: in vivo; conditions: 10 mg/kg/d IP for 6 weeks
Method: Cerebral Aβ accumulation is a core feature of AD. Since memantine, a glutamate receptor subtype antagonist is an approved treatment for people with AD, we tested whether our false glutamatergic neurotransmitter might be therapeutic in a transgenic model of AD. Four month old Line 41 male mice were treated with S-2MeGlu at 10 mg/kg/d IP for 6 weeks with behavior tested using activity chamber, Y maze, novel object and novel place recognition, Morris water maze, and fear conditioning.

CC(N)(CCC(N)=O)C(=O)O (racemic) [rac-2MeGln, rac-2-methylglutamine]
apparent GLS1 reaction rate, lower compared to that of Gln (human glutaminase GLS1): approximately 35 fold | apparent reaction rate of GLS1 hydrolysis (human glutaminase GLS1; 5 ng/mL enzyme, phosphate pH 7.4): 1.9 µM/min

C[C@@](N)(CCC(=O)O)C(=O)O [(R)-2MeGlu, (R)-2-methylglutamic acid]
IC50 (GluN2A): 69 µM

C[C@](N)(CCC(=O)O)C(=O)O [(S)-2MeGlu, (S)-2-methylglutamic acid]
Aβ accumulation by immunohistochemistry (Line 41 mice): no change in Aβ accumulation | behavior tests (activity chamber, Y maze, novel object and place recognition, Morris water maze, fear conditioning) (Line 41 mice): only rescued performance in the Y maze | body weights or deaths (Line 41 mice): no difference in body weights or any deaths
